Reference: paper PMC12028158, “Synthesis and In Vitro Evaluation of the Anticancer Effect of Novel Phosphonium Vindoline Derivatives” (International Journal of Molecular Sciences, 2025)
Where two headings read alike, the source gives them in different places.

What was measured:
Assay type in all cases: cell-based
SF-268 = assay: NCI60 one-dose screen; conditions: Homo sapiens
T-47D = assay: NCI60 five-dose screen; conditions: Homo sapiens, T47D
SK-MEL-28 [1] = assay: NCI60 one-dose screen; conditions: Homo sapiens
NCI-H23 [2] = assay: NCI60 one-dose screen; conditions: Homo sapiens
IGROV1 = assay: NCI60 one-dose screen; conditions: Homo sapiens
HL-60(TB) = assay: NCI60 five-dose screen; conditions: Homo sapiens
MALME-3M [3] = assay: NCI60 five-dose screen; conditions: Homo sapiens
MDA-MB-435 = assay: NCI60 one-dose screen; conditions: Homo sapiens
UACC-257 = assay: NCI60 five-dose screen; conditions: Homo sapiens
MDA-MB-468 = assay: NCI60 five-dose screen; conditions: Homo sapiens
NCI-H23 [4] = assay: NCI60 five-dose screen; conditions: Homo sapiens
HCT-15 = assay: NCI60 five-dose screen; conditions: Homo sapiens
NCI-H460 = assay: NCI60 one-dose screen; conditions: Homo sapiens
786-0 = assay: NCI60 one-dose screen; conditions: Homo sapiens
LOX IMVI = assay: NCI60 five-dose screen; conditions: Homo sapiens
MALME-3M [5] = assay: NCI60 one-dose screen; conditions: Homo sapiens, read-out: Growth percent
OVCAR-8 [6] = assay: NCI60 one-dose screen; conditions: Homo sapiens
HOP-62 = assay: NCI60 five-dose screen; conditions: Homo sapiens
KM12 = assay: NCI60 five-dose screen; conditions: Homo sapiens
MCF7 [7] = assay: NCI60 one-dose screen; conditions: Homo sapiens
SK-MEL-2 = assay: NCI60 one-dose screen; conditions: Homo sapiens
NCI-H322M = assay: NCI60 one-dose screen; conditions: Homo sapiens, read-out: Growth percent
MOLT-4 = assay: NCI60 one-dose screen; conditions: Homo sapiens
UACC-62 = assay: NCI60 one-dose screen; conditions: Homo sapiens
RPMI-8226 = assay: NCI60 one-dose screen; conditions: Homo sapiens
M14 = assay: NCI60 one-dose screen; conditions: Homo sapiens
SF-539 = assay: NCI60 five-dose screen; conditions: Homo sapiens
SN12C = assay: NCI60 one-dose screen; conditions: Homo sapiens, read-out: Growth percent
HOP-92 = assay: NCI60 one-dose screen; conditions: Homo sapiens
SK-MEL-5 [8] = assay: NCI60 five-dose screen; conditions: Homo sapiens
OVCAR-3 = assay: NCI60 five-dose screen; conditions: Homo sapiens
SK-MEL-5 [9] = assay: NCI60 one-dose screen; conditions: Homo sapiens
SK-MEL-28 [10] = assay: NCI60 five-dose screen; conditions: Homo sapiens
HS 578T = assay: NCI60 one-dose screen; conditions: Homo sapiens, read-out: Growth percent
SNB-19 [11] = assay: NCI60 five-dose screen; conditions: Homo sapiens
SR = assay: NCI60 one-dose screen; conditions: Homo sapiens, read-out: Growth percent
Ovarian Cancer panel = assay: NCI60 five-dose screen, panel mean; conditions: Homo sapiens
SNB-19 [12] = assay: NCI60 one-dose screen; conditions: Homo sapiens
COLO 205 = assay: NCI60 one-dose screen; conditions: Homo sapiens
A549/ATCC = assay: NCI60 five-dose screen; conditions: Homo sapiens
Leukemia panel = assay: NCI60 five-dose screen, panel mean; conditions: Homo sapiens
OVCAR-8 [13] = assay: NCI60 five-dose screen; conditions: Homo sapiens
Renal Cancer panel = assay: NCI60 five-dose screen, panel mean; conditions: Homo sapiens
SF-295 = assay: NCI60 one-dose screen; conditions: Homo sapiens
EKVX = assay: NCI60 five-dose screen; conditions: Homo sapiens
MCF7 [14] = assay: NCI60 five-dose screen; conditions: Homo sapiens

CC[C@]12C=CCN3CC[C@@]4(c5ccc(OC)cc5N(C)[C@H]4[C@@](O)(C(=O)OC)[C@@H]1OC(=O)CCC[P+](c1ccc(OC)cc1)(c1ccc(OC)cc1)c1ccc(OC)cc1)[C@@H]32 [9b]
activity at 10 µM (SF-268; SF-268, 10 μM, one-dose, read-out: Growth percent): -34.3%
GI50 (T-47D; T-47D, Breast Cancer, five-dose, read-out: GI50): 0.353 µM
activity at 10 µM (SK-MEL-28 [1]; SK-MEL-28, 10 μM, one-dose, read-out: Growth percent): -96.3%
activity at 10 µM (NCI-H23 [2]; NCI-H23, 10 μM, one-dose, read-out: Growth percent): -92.5%
activity at 10 µM (IGROV1; IGROV-1, IGROV1, 10 μM, one-dose, read-out: Growth percent): -92.1%
GI50 (HL-60(TB); HL-60, HL-60(TB), Leukemia, five-dose, read-out: GI50): 0.256 µM
GI50 (MALME-3M [3]; MALME-3M, Melanoma, five-dose, read-out: GI50): 0.624 µM
activity at 10 µM (MDA-MB-435; MDA-MB-435, 10 μM, one-dose, read-out: Growth percent): -76.9%
GI50 (UACC-257; UACC-257, UACC-257, Melanoma, five-dose, read-out: GI50): 0.646 µM
GI50 (MDA-MB-468; MDA-MB-468, MDA-MB-468, Breast Cancer, five-dose, read-out: GI50): 0.241 µM
GI50 (NCI-H23 [4]; NCI-H23, Non-small Cell Lung Cancer, five-dose, read-out: GI50): 0.671 µM
GI50 (HCT-15; HCT-15, Colon Cancer, five-dose, read-out: GI50): 3.64 µM
activity at 10 µM (NCI-H460; NCI-H460, 10 μM, one-dose, read-out: Growth percent): -85.2%
activity at 10 µM (786-0; 786-0, 10 μM, one-dose, read-out: Growth percent): -89.5%
GI50 (LOX IMVI; Melanoma, five-dose, read-out: GI50): 0.614 µM
activity at 10 µM (MALME-3M [5]; MALME-3M, 10 μM, one-dose): -97.8%
activity at 10 µM (OVCAR-8 [6]; OVCAR-8, 10 μM, one-dose, read-out: Growth percent): -86.2%
GI50 (HOP-62; HOP-62, Non-small Cell Lung Cancer, five-dose, read-out: GI50): 1.66 µM
GI50 (KM12; KM12, KM12, Colon Cancer, five-dose, read-out: GI50): 0.628 µM
activity at 10 µM (MCF7 [7]; MCF7, 10 μM, one-dose, read-out: Growth percent): -83%
activity at 10 µM (SK-MEL-2; SK-MEL-2, 10 μM, one-dose, read-out: Growth percent): -90.6%
activity at 10 µM (NCI-H322M; 10 μM, one-dose): -97.7%
activity at 10 µM (MOLT-4; MOLT-4, 10 μM, one-dose, read-out: Growth percent): -36.8%
activity at 10 µM (UACC-62; UACC-62, 10 μM, one-dose, read-out: Growth percent): -97.1%
activity at 10 µM (RPMI-8226; RPMI-8226, 10 μM, one-dose, read-out: Growth percent): -45.5%
activity at 10 µM (M14; M14, 10 μM, one-dose, read-out: Growth percent): -88.4%
GI50 (SF-539; SF-539, CNS Cancer, five-dose, read-out: GI50): 1.23 µM
activity at 10 µM (SN12C; 10 μM, one-dose): -93.4%
activity at 10 µM (HOP-92; HOP-92, 10 μM, one-dose, read-out: Growth percent): -82.9%
GI50 (SK-MEL-5 [8]; SK-MEL-5, Melanoma, five-dose, read-out: GI50): 1.55 µM
GI50 (OVCAR-3; OVCAR-3, Ovarian Cancer, five-dose, read-out: GI50): 0.624 µM
activity at 10 µM (SK-MEL-5 [9]; SK-MEL-5, 10 μM, one-dose, read-out: Growth percent): -99.6%
GI50 (SK-MEL-28 [10]; SK-MEL-28, Melanoma, five-dose, read-out: GI50): 0.453 µM
activity at 10 µM (HS 578T; HS 578T, 10 μM, one-dose): -65.4%
GI50 (SNB-19 [11]; SNB-19, SNB-19, CNS Cancer, five-dose, read-out: GI50): 0.391 µM
activity at 10 µM (SR; 10 μM, one-dose): 15%
GI50 (Ovarian Cancer panel; mean over Ovarian Cancer panel, read-out: Mean GI50): 3.46 µM
activity at 10 µM (SNB-19 [12]; SNB-19, 10 μM, one-dose, read-out: Growth percent): -96.7%
activity at 10 µM (COLO 205; COLO 205, 10 μM, one-dose, read-out: Growth percent): -64.4%
GI50 (A549/ATCC; A549/ATCC, Non-small Cell Lung Cancer, five-dose, read-out: GI50): 0.731 µM
GI50 (Leukemia panel; mean over Leukemia panel, read-out: Mean GI50): 0.55 µM
GI50 (OVCAR-8 [13]; OVCAR-8, Ovarian Cancer, five-dose, read-out: GI50): 1.41 µM
GI50 (Renal Cancer panel; mean over Renal Cancer panel, read-out: Mean GI50): 3.01 µM
activity at 10 µM (SF-295; SF-295, 10 μM, one-dose, read-out: Growth percent): -93.7%
GI50 (EKVX; Non-small Cell Lung Cancer, five-dose, read-out: GI50): 1.06 µM
GI50 (MCF7 [14]; MCF7, MCF7, Breast Cancer, five-dose, read-out: GI50): 0.383 µM

CC[C@]12C=CCN3CC[C@@]4(c5ccc(OC)cc5N(C)[C@H]4[C@@](O)(C(=O)OC)[C@@H]1OC(=O)CCCC[P+](C1CCCCC1)(C1CCCCC1)C1CCCCC1)[C@@H]32 [10d]
activity at 10 µM (SF-268; SF-268, read-out: Growth percent): -70.5%
GI50 (T-47D): 0.92 µM
activity at 10 µM (SK-MEL-28 [1]; SK-MEL-28, read-out: Growth percent): -86.5%
activity at 10 µM (NCI-H23 [2]; NCI-H23, read-out: Growth percent): -9.66%
activity at 10 µM (IGROV1; IGROV-1, read-out: Growth percent): -84.7%
GI50 (HL-60(TB); HL-60): 0.293 µM
GI50 (MALME-3M [3]; Malme-3M): 1.63 µM
activity at 10 µM (MDA-MB-435; MDA-MB-435, read-out: Growth percent): -90.5%
GI50 (UACC-257; UACC-257): 1.57 µM
GI50 (MDA-MB-468; MDA-MB-468): 0.378 µM
GI50 (NCI-H23 [4]; NCI-H23): 2.34 µM
GI50 (HCT-15; HCT-15): 16.1 µM
activity at 10 µM (NCI-H460; NCI-H460, read-out: Growth percent): 5.27%
activity at 10 µM (786-0; 786-0, read-out: Growth percent): -36%
GI50 (LOX IMVI): 2.9 µM
activity at 10 µM (MALME-3M [5]; Malme-3M): -95.9%
activity at 10 µM (OVCAR-8 [6]; OVCAR-8, read-out: Growth percent): -6.33%
GI50 (HOP-62; HOP-62): 3.9 µM
GI50 (KM12; KM12): 1.72 µM
activity at 10 µM (MCF7 [7]; MCF7, read-out: Growth percent): -64.2%
activity at 10 µM (SK-MEL-2; SK-MEL-2, read-out: Growth percent): -88%
activity at 10 µM (NCI-H322M): 16.1%
activity at 10 µM (MOLT-4; MOLT-4, read-out: Growth percent): -5.16%
activity at 10 µM (UACC-62; UACC-62, read-out: Growth percent): -96.9%
activity at 10 µM (RPMI-8226; RPMI-8226, read-out: Growth percent): -45%
activity at 10 µM (M14; M14, read-out: Growth percent): -83.5%
GI50 (SF-539; SF-539): 2.85 µM
activity at 10 µM (SN12C): -57.9%
activity at 10 µM (HOP-92; HOP-92, read-out: Growth percent): -44.5%
GI50 (SK-MEL-5 [8]; SK-MEL-5): 1.88 µM
GI50 (OVCAR-3; OVCAR-3): 1.93 µM
activity at 10 µM (SK-MEL-5 [9]; SK-MEL-5, read-out: Growth percent): -96.2%
GI50 (SK-MEL-28 [10]; SK-MEL-28): 1.38 µM
activity at 10 µM (HS 578T; Hs-578T): -35%
GI50 (SNB-19 [11]; SNB-19): 1.92 µM
activity at 10 µM (SR): 19.5%
GI50 (Ovarian Cancer panel; read-out: GI50 Mean): 11.4 µM
activity at 10 µM (SNB-19 [12]; SNB-19, read-out: Growth percent): -71.1%
activity at 10 µM (COLO 205; COLO 205, read-out: Growth percent): -76.6%
GI50 (A549/ATCC; A549): 3.13 µM
GI50 (Leukemia panel; read-out: GI50 Mean): 1.22 µM
GI50 (OVCAR-8 [13]; OVCAR-8): 2.93 µM
GI50 (Renal Cancer panel; read-out: GI50 Mean): 8.36 µM
activity at 10 µM (SF-295; SF-295, read-out: Growth percent): -19.6%
GI50 (EKVX): 3.13 µM
GI50 (MCF7 [14]; MCF7): 1.05 µM
